Data published in patent publication US20140271734A1, “BILE ACID RECYCLING INHIBITORS FOR TREATMENT OF BARRETT'S ESOPHAGUS AND GASTROESOPHAGEAL REFLUX DISEASE” (LUMENA PHARMACEUTICALS, INC., priority 2013, published 2014).

Experiments:
[1] = test system: fecal total bile acid (FBA); assay: Fecal bile acids in monkeys, LUM001 for 14 days; format: in vivo, rhesus monkeys; details: n=5
Excerpt: Fifteen experimentally naive male rhesus monkeys were utilized in this study. These animals were 2.1 to 4.2 years of age and weighed between 2.8 to 4.3 kg on the day prior to treatment initiation. HARLAN TEKLAD PRIMATE DIET® (Certified) was provided daily in amounts appropriate for the size and age of the animals. The diet was supplemented with fruit or vegetables 2-3 times weekly. Small bits of fruit, cereal or other treats were given to the animals following dose administration and periodically as part of facility's environmental enrichment program. Beginning prior to treatment initiation, only non-fat treats were provided to the animals (e.g., standard primate treats including peanut butter, sunflower seeds, baby food, nuts, pudding, and worms were specifically not permitted). Tap water was available ad libitum via an automatic watering device. Each animal was administered a dose of the LUM001 contained within gelatin capsules or the control article (empty gelatin capsules) once daily for 14 consecutive days. Fecal samples for determination of bile acid content were collected over approximately 24-hour periods beginning three days prior to treatment initiation and continuing until scheduled termination of dosing on Day 15. Samples were stored at −70 C until analysis.
Fecal samples were collected to determine the fecal total bile acid (FBA) concentration for each animal. Fecal collections were made during the final 72 hours of the study, for three consecutive 24-hour periods between 9:00 am and 10:00 am each day, prior to dosing and feeding. The separate daily collections from each dog were weighed, combined and homogenized with distilled water in a food processor to generate a homogeneous slurry. Homogenate (1.4 g) was extracted in a final concentration ratio of 2:0.6 of 50% (v/v) tertiary butanol/distilled water for 45 minutes in a 37° C. water bath and subjected to centrifugation for 13 minutes at 2000×g. The concentration of bile acids (mmolesgram homogenate) was determined using a 96-well enzymatic assay system. Aliquots of the fecal extracts (20 μl) were added to two sets of triplicate wells in a 96 well assay plate. A standardized sodium taurocholate solution and a standardized fecal extract solution (previously made from pooled samples and characterized for its bile acid concentration) were also analyzed for assay quality control. Aliquots of sodium taurocholate (20 μl), were serially diluted to generate a standard curve containing 30-540 nmoles/well. A 230 μl aliquot of reaction mixture containing 1M hydrazine hydrate, 0.1 M pyrophosphate and 0.46 mg/ml NAD was added to each well. […] Following 60 minutes of incubation at room temperature, the optical density at 340 nm was measured and the mean of each set of triplicate samples was calculated. […]

[2] = test system: Alkaline Phosphatase (ALP); details: twice daily oral gavage; Week 3
Procedure: This study was conducted to determine the effects of two non-absorbed ASBTi compounds in the ZDF rat model after 3 weeks of treatment.
Animals were acclimatized for 5-7 days after arrival. […] The 2nd set of study was initiated after completion of the 1st. Test compound formulation prepared every other day and stored at 4° C. […] After 3rd week of treatment blood samples were collected by cardiac puncture from fasted animals for blood chemistry analysis: ALAT, ASAT, GGT, Alkaline Phosphatase and total Bile Acids. Tests were performed in contract clinical laboratory (Liver Profile SA320, Antech Diagnostics, Orange Country, Calif.).
Blood was collected by tail vein bleed weekly and after 3 weeks of treatment by cardiopuncture for serum tests. Data for each group is presented as the Mean Value±SEM. Statistically evaluation by t-test: *P<0.05, **P<0.01,***P<0.001 vs. vehicle group.

Row | Structure (SMILES) | Fecal Total Bile Acids ([1]; 5 mg/kg once daily 14 days, Day 15) [µmol/day/kg] | Fecal Total Bile Acids ([1]; 5 mg/kg once daily, Prestudy) [µmol/day/kg] | Fecal Total Bile Acids ([1]; 50 mg/kg once daily 14 days, Day 15) [µmol/day/kg] | Fecal Total Bile Acids ([1]; 50 mg/kg once daily, Prestudy) [µmol/day/kg] | Plasma alkaline phosphatase (ALP) [2]
1 | CCCCC1(CCCC)CS(=O)(=O)c2ccc(N(C)C)cc2[C@@H](c2ccc(OCc3ccc(C[N+]45CCN(CC4)CC5)cc3)cc2)[C@H]1O [LUM001] | 23 | 6 | 63 | 6 | –
2 | CCCC[C@]1(CC)CS(=O)(=O)c2ccc(N(C)C)cc2[C@@H](c2cccc(NC(=O)N[C@@H]3O[C@H](COS(=O)(=O)[O-])[C@@H](O)[C@H](OCc4ccccc4)[C@H]3O)c2)[C@H]1O.CCO.O.[K+] [LUM002, potassium((2R,3R,4S,5R,6R)-4-benzyloxy-6-{3-[3-((3S,4R,5R)-3-butyl-7-dimethylamino-3-ethyl-4-hydroxy-1,1-dioxo-2,3,4,5-tetrahydro-1H-benzo[b]thiepin-5-yl)-phenyl]-ureido}-3,5-dihydroxy-tetrahydro-pyran-2-ylmethyl)sulphate ethanolate, hydrate] | – | – | – | – | significant reductions in ALP
